SMILES strings stand for the structures.

The series can be described thus: Micelle/water partition coefficient (Pmic) of the compound was determined. The class given is physicochemical. The following applies: buffer.
Consider `Cc1cc(=O)n(-c2ccccc2)n1C` [ANTIPYRINE], for which the “Log Pmic” value amounted to 0.58.

For the compound `CN1CC(=O)NC1=N` [CREATININE], the “Log Pmic” value is given as -0.3.

`COc1cccc2c1C(=O)c1c(O)c3c(c(O)c1C2=O)C[C@@](O)(C(=O)CO)C[C@@H]3O[C@H]1C[C@H](N)[C@H](O)[C@H](C)O1` [DOXORUBICIN]: the “Log Pmic” value came out at 1.9.

As to `O=c1[nH]cc(F)c(=O)[nH]1` [FLUOROURACIL], the “Log Pmic” value was 0.21.

For `NC=O` [FORMAMIDE], the “Log Pmic” value is recorded as -0.35.

Turning to `Cc1ncc([N+](=O)[O-])n1CCO` [METRONIDAZOLE], the “Log Pmic” value turned out to be 0.54.

For `CNC(=O)c1cccnc1` [NICOTINYL METHYLAMIDE], the “Log Pmic” value came out at 0.39.

For `CCc1nc(N)nc(N)c1-c1ccc(Cl)cc1` [PYRIMETHAMINE], the “Log Pmic” value was determined as 2.51.

For the compound `O=c1[nH]c(=O)n(C2CCCO2)cc1F` (configuration not stated) [TEGAFUR], the “Log Pmic” value was determined as 0.7.

As to `NC(N)=S` [THIOUREA], the “Log Pmic” value is 0.48.

As to `NC(N)=O` [UREA], the “Log Pmic” value is recorded as -0.12.

On to `CC[C@]1(O)C[C@H]2CN(CCc3c([nH]c4ccccc34)[C@@](C(=O)OC)(c3cc4c(cc3OC)N(C=O)[C@H]3[C@@](O)(C(=O)OC)[C@H](OC(C)=O)[C@]5(CC)C=CCN6CC[C@]43[C@@H]65)C2)C1` [VINCRISTINE], for which the “Log Pmic” value is listed as 2.48.
